Experimental findings from patent publication US11058114B2, “Use of n-arylamidine-substituted trifluoroethyl sulphoxide derivatives for controlling pests by watering, droplet application, dip application, soil injection or by treating seed” (BAYER CROPSCIENCE AKTIENGESELLSCHAFT, priority 2014, dated 2021) are described below.

The subject of test [1] is greenhouse red spider mite (Tetranychus urticae), OP-resistant. Nature of the test: Tetranychus urticae drench test, OP-resistant (TETRUR DRENCH). Format: in vivo. To be noted: bean plants (Phaseolus vulgaris) in soil pots, 100% = all spider mites killed; for pest or weed control at 0.8 ppm / pest or weed control at 0.16 ppm / pest or weed control at 4 ppm: Tetranychus urticae, in Phaseolus vulgaris, soil, 336 h, 14 d, read-out: % effect after 14 d. How it is done:
Tetranychus urticae—Drench Test, OP-Resistant (TETRUR)
(§1) Solvent: 7 parts by weight of dimethylformamide
Emulsifier: 2 parts by weight of alkylaryl polyglycol ether
To produce a suitable active compound preparation, 1 part by weight of active compound was mixed with the specified amounts of solvent and emulsifier, and the concentrate was diluted with water to the desired concentration, with the volume of soil which was drenched being taken into account. It was ensured that a concentration of 40 ppm of emulsifier in the soil was not exceeded. To produce further test concentrations, water was used for dilution.
Bean plants (Phaseolus vulgaris), in soil pots, which were heavily infested by all stages of the greenhouse red spider mite (Tetranychus urticae) were watered with an active compound preparation of the desired concentration.
(§2) After the desired period of time, the efficacy in % was determined. 100% means that all the spider mites have been killed; 0% means that no spider mites have been killed.

For test [2] the test system is unchanged. Nature of the test: Tetranychus urticae spray test, OP-resistant (TETRUR SPRAY). In kind it is in vivo. The note with it: bean plants (Phaseolus vulgaris), 100% = all spider mites killed; for pest or weed control at 0.8 ppm / pest or weed control at 0.16 ppm / pest or weed control at 4 ppm: Tetranychus urticae, 336 h, 14 d, read-out: % effect after 14 d. The procedure: Tetranychus urticae—Spray Test; OP-Resistant (TETRUR)
as §1
Emulsifier: alkylaryl polyglycol ether
To produce a suitable active compound preparation, 1 part by weight of active compound was dissolved using the stated parts by weight of solvent and made up with water containing an emulsifier concentration of 1000 ppm until the desired concentration was attained. To produce further test concentrations, the preparation was diluted with emulsifier-containing water. Ammonium salts and penetrants (rapeseed oil methyl ester) were each added in a concentration of 1000 ppm to the solution of the preparations.
Bean plants (Phaseolus vulgaris) which were heavily infested by all stages of the greenhouse red spider mite (Tetranychus urticae) were sprayed with an active compound preparation of the desired concentration.
as §2

Consider `CN(C)/C(=N/c1cc([S+]([O-])CC(F)(F)F)c(Cl)cc1Cl)C(F)(F)F` (centres unmarked) [Ib-26], for which the pest or weed control at 0.8 ppm in test [1] worked out at 95%; in test [2], 0%.

`Cc1cc(F)c(/N=C2\SCC(=O)N2CC(F)(F)F)cc1[S@+]([O-])CC(F)(F)F` [Ib-168]: the pest or weed control at 0.16 ppm in test [1] (0.16 ppm) was found to be 50%; in test [2] (0.16 ppm), 0%. In addition, the pest or weed control at 0.8 ppm in test [1] was 95%; in test [2], 30%.

Turning to `Cc1cc(F)c(/N=C(\N)c2cnccn2)cc1[S+]([O-])CC(F)(F)F` (centres unmarked) [Ib-62], in test [1], the pest or weed control at 0.8 ppm came out at 90% and the pest or weed control at 4 ppm turned out to be 90%. In test [2], the pest or weed control at 0.8 ppm is 0% and the pest or weed control at 4 ppm came out at 0%.

For `N/C(=N/c1cc([S+]([O-])CC(F)(F)F)c(Cl)cc1Cl)C(F)(F)F` (centres unmarked) [Ib-14], the “% effect after 14 d” value in test [1] (0.16 ppm) came to 80%; in test [2] (0.16 ppm), 0%.

For `N/C(=N/c1cc([S+]([O-])CC(F)(F)F)c(Br)cc1Cl)C(F)(F)F` (centres unmarked) [Ib-68], the results for the pest or weed control at 0.16 ppm in test [1] (0.16 ppm) and in test [2] (0.16 ppm) were 98% and 0%, respectively. For the same compound, the pest or weed control at 0.8 ppm in test [1] came out at 100%; in test [2], 80%.

For `CN/C(=N/c1cc([S+]([O-])CC(F)(F)F)c(Cl)cc1Cl)C(F)(F)F` (centres unmarked) [Ib-21], the pest or weed control at 0.16 ppm in test [1] (0.16 ppm) stood at 80%; in test [2] (0.16 ppm), 0%. The pest or weed control at 0.8 ppm in test [1] is 95%; in test [2] it was 90%.

On to `CN/C(=N/c1cc([S+]([O-])CC(F)(F)F)c(Br)cc1Br)C(F)(F)F` (centres unmarked) [Ib-24], for which the pest or weed control at 0.8 ppm in test [1] worked out at 100%; in test [2], 30%.

For the compound `Cc1cc(F)c(/N=C2\CCCN2CC(F)(F)F)cc1[S+]([O-])CC(F)(F)F` (centres unmarked) [Ib-115], in test [1], the pest or weed control at 0.8 ppm amounted to 90% and the pest or weed control at 4 ppm was found to be 90%. For the same compound, in test [2], the pest or weed control at 0.8 ppm came out at 0% and the pest or weed control at 4 ppm was found to be 0%.

Turning to `N/C(=N/c1ccc(C(F)(F)F)c([S+]([O-])CC(F)(F)F)c1)C(F)(F)F` (centres unmarked) [Ib-16], the pest or weed control at 0.16 ppm turned out to be 99% in test [1] (0.16 ppm) and 0% in test [2] (0.16 ppm). The pest or weed control at 0.8 ppm worked out at 100% in test [1] and 40% in test [2].

Turning to `Cc1cc(F)c(/N=C(\N)C(F)(F)F)cc1[S+]([O-])CC(F)(F)F` (centres unmarked) [Ib-11], in test [1], the pest or weed control at 0.8 ppm is 100% and the pest or weed control at 4 ppm is 100%. Moreover, in test [2], the pest or weed control at 0.8 ppm worked out at 50% and the pest or weed control at 4 ppm was 95%.

As for `Cc1cc(F)c(/N=C2\CCCN2CC(F)F)cc1[S+]([O-])CC(F)(F)F` (centres unmarked) [Ib-33], the values for the pest or weed control at 0.16 ppm in test [1] (0.16 ppm) and in test [2] (0.16 ppm) were 60% and 0%, respectively. Moreover, the pest or weed control at 0.8 ppm worked out at 95% in test [1] and 0% in test [2].

For `Cc1cc(F)c(/N=C(\N(C)C)C(F)(F)F)cc1[S+]([O-])CC(F)(F)F` (centres unmarked) [Ib-01], in test [1], the pest or weed control at 0.8 ppm came to 100% and the pest or weed control at 4 ppm was determined as 100%. Besides, in test [2], the pest or weed control at 0.8 ppm was 0% and the pest or weed control at 4 ppm was 98%.

For `N/C(=N/c1cc([S+]([O-])CC(F)(F)F)c(Cl)cc1Br)C(F)(F)F` (centres unmarked) [Ib-57], the values for the pest or weed control at 0.16 ppm in test [1] (0.16 ppm) and in test [2] (0.16 ppm) were 90% and 0%, respectively.

Regarding `Cc1cc(F)c(/N=C(\N)C2(Cl)CC2)cc1[S+]([O-])CC(F)(F)F` (centres unmarked) [Ib-22], the pest or weed control at 0.8 ppm turned out to be 90% in test [1] and 0% in test [2]. In addition, the values for the pest or weed control at 4 ppm in test [1] and in test [2] were 90% and 30%, respectively.

As to `Cc1cc(F)c(/N=C(\N)C2(F)CC2)cc1[S+]([O-])CC(F)(F)F` (centres unmarked) [Ib-19], the pest or weed control at 0.16 ppm came out at 98% in test [1] (0.16 ppm) and 0% in test [2] (0.16 ppm). For the same compound, the pest or weed control at 0.8 ppm in test [1] was 98%; in test [2] it was 30%.

Regarding `N/C(=N/c1cc([S+]([O-])CC(F)(F)F)c(Br)cc1Br)C(F)(F)F` (centres unmarked) [Ib-18], the pest or weed control at 0.16 ppm is 99% in test [1] (0.16 ppm) and 0% in test [2] (0.16 ppm). Further, the pest or weed control at 0.8 ppm in test [1] was found to be 99%; in test [2] it was 50%.

Regarding `CN(C)/C(=N/c1cc([S+]([O-])CC(F)(F)F)c(Br)cc1Br)C(F)(F)F` (centres unmarked) [Ib-25], the pest or weed control at 0.8 ppm in test [1] is 99%; in test [2] it was 50%.

Regarding `N/C(=N/c1cc([S+]([O-])CC(F)(F)F)c(Cl)cc1Cl)C(F)(F)F` (centres unmarked) [Ib-17], the pest or weed control at 0.16 ppm was 98% in test [1] (0.16 ppm) and 0% in test [2] (0.16 ppm). The figures for the pest or weed control at 0.8 ppm in test [1] and in test [2] were 100% and 98%, respectively.
